The values that follow come from patent US20200360318A1, “COMPOSITIONS AND METHODS FOR INCREASING THE POLLINATION PERFORMANCE OF BEES” (Beeflow Corporation, priority 2019, published 2020).

A short description of the series: ABA content in fifth instar larvae of colonies fed ABA syrup. The format is in vivo, honey bees. Conditions: 10 μM ABA in sucrose syrup (2:1); fifth instar larvae (L5), two months after starting treatment. As for the experimental part: ABA was added to sucrose syrup (2:1, sucrose:water) to achieve a concentration of 10 μM ABA. Two groups of small colonies of honey bees were used to test if the compound was reaching the bee larvae. One group of colonies was exposed to the solution by way of adding the solution to feed the bees in the beehive, while the other was not. In order to corroborate that the ABA supplemented in the syrup actually reached the larvae, the ABA content was measured in fifth instar larvae (L5) two months after starting treatment.

Structures are written as SMILES.

`CC1=CC(=O)CC(C)(C)[C@@]1(O)/C=C/C(C)=C\C(=O)O` [ABA, (2Z,4E)-5-[(1S)-1-hydroxy-2,6,6-trimethyl-4-oxocyclohex-2-en-1-yl]-3-methylpenta-2,4-dienoic acid]: the “concentration of ABA in larvae compared to the control colony” value was 28 x.
